Tests used:
RAW264.7 macrophages = test: Lactate dehydrogenase (LDH) assay in macrophages; assay type: cell-based, murine
Experimental: Effect of Abeta-Glu-OC (3 ng) mixture on macrophage integrity: To determine whether the mixture produced any toxicity lactate dehydrogenase (LDH) assay was performed. Briefly, the cells were incubated with the mixture under serum starved conditions for 1 hour followed by LDH assay. LDH was assayed using In vitro toxicology assay kit from Sigma-Aldrich, St. Louis, Mo., USA (cat. no.-TOX7) as per the manufacturer's directions. LDH assay substrate solution, LDH assay dye solution and 1×LDH assay cofactor were provided with the kit. […] To this LDH assay mixture was added and incubated at room temperature in the dark for 20-30 min. The reaction was terminated by the addition of 1/10 volume of 1N HCl. Absorption was taken 490 nm with the help of in a Tecan Microplate reader, Switzerland with Magellan™ software.

[1] = test system: iNOS (inducible nitric oxide synthase); test: iNOS Western blot and Griess nitrite assay in ConA activated macrophages; assay type: cell-based, murine; conditions: ConA induced
Experimental: To determine the anti-inflammatory potential of A-O complex, protein level of iNOS (inducible nitric oxide synthase) in cell lysates and nitrite level in cell culture supernatants were evaluated by Western blot and Griess assay respectively. iNOS antibody used was #2982 from Cell Signaling Technology. For determination of nitrite cell culture media and Griess reagent (5% phosphoric acid containing 0.1% NEDD, 1% sulfanilamide) were mixed and incubated in dark for 10 min at room temperature. The absorbance of the violet colored product and blank (cell culture media) was measured at 540 nm. The concentration of nitrite in the sample was determined from a sodium nitrite (NaNO2) standard curve.

Abeta42 = target: T1, Abeta42 (Homo sapiens, UniProt P05067); test: Abeta42 fibrillization in situ (TEM, Thioflavin T binding assay); assay type: biochemical; conditions: Abeta42 100 μM + Glu-OC 3 ng vs Abeta42 control, 8th hour
T1 construct: of Abeta 1-42 peptide; Molecular weight = 4514.1; purchased r-peptide
Experimental: For this study, different concentrations of Glu-OC viz. […] After keeping the samples for 5 minutes, the excess was washed off with ultrapure water and surplus sample and water were wicked away using absorbent paper. The samples were negatively stained using 1% uranyl acetate stain, dried and analyzed in a transmission electron microscope CM10 Philips operated at 80 kV. […] ThT assay measures the changes in fluorescence intensity of ThT upon binding to amyloid fibrils. […] The resulting ThT fluorescence intensities of samples were measured at an emission wavelength of 480 nm and excitation wavelength of 440 nm and 5 nm slit width using a Jobin Vyon Horiba Fluoromax-4 spectrofluorimeter. The inner filter effect was taken into account using the Equation: Fc=F×anti log[(Aex+Aem)/2] where Fc is the corrected flourescence and F is apparent fluorescence, Aex and Aem are the absorbances of the samples at excitation and emission wavelengths respectively.

[2] = test system: co-culture of osteoblast (MC3T3-E1) and osteoclast (from RAW264.7); test: Osteoblast-osteoclast co-culture, mRNA by Real Time PCR; assay type: cell-based, mouse; conditions: 24 hours of incubation, vs basal
Experimental: Effect of A-O complex on bone cells: To determine whether A-O complex modulated bone cells, A-O complex was added to a co-culture system of osteoblast and osteoclast. MC3T3-E1 sub-clone 4 (pre-osteoblast cell line derived from new born mouse calvaria purchased from American Type Culture Collection) were cultured in α-MEM (Invitrogen, USA) supplemented with 10% fetal bovine serum and 1% anti-anti (Invitrogen, USA). Osteoblasts within the 4th and 10th passages were used for this study. For cell culture experiments 2×10^6 cells were seeded in 60 mm Petri plates. To initiate differentiation, cells were treated with 10 mM β-glycerophosphate and 50 μg/ml ascorbic acid. Murine RAW264.7 (macrophage) cells were used for generating osteoclasts. The cells were maintained in RPMI 1640 media supplemented with glutamine (2 mM) and FBS (10%). No trypsination was performed and subculture was done using a cell scraper after cultures reached 65-70% confluency. For generation of osteoclasts from RAW264.7 cells, cells of density 12000 cells per cm^2 were stimulated with 25 ng per ml of RANKL (directly with seeding) for 72-96 hours after which large multinucleated cells are seen and confirmed using TRAP5b assay. […] Thereafter the co-culture was exposed to A-O complex and the mRNA levels of osteocalcin and IGF-1 were analyzed by Real Time PCR.

[3] = test system: ConA activated macrophages; test: qPCR in ConA activated macrophages; assay type: cell-based, murine
Experimental: To determine the immunomodulatory effect of A-O complex, serum starved macrophages were exposed to the complex. Macrophages (1×10^6 cells) were serum starved for 30 min after which cells were exposed to A-O complex. After 1 hour, cells were washed with 1×PBS (pH 7.4) and harvested using cell dissociation solution. Then the cells were suspended in ice cold staining buffer (100 μl) and centrifuged at 1000 rpm for 5 min at 4° C. The cells were resuspended in 100 μl ice cold staining buffer for 10 min at 2-8° C. and pellet resuspended in 50 μl staining media. To this 2 μl of Fc block or anti-mouse CD16/CD32 was added for 10 mins and washed with staining buffer. The cells were resuspended in 50 μl of staining buffer and incubated with fluorescent-tagged CD36 antibody (e-biosciences) for 25-30 min on ice. The excess stain was removed by washing and pelleting down using staining buffer thrice by spinning and removal of staining buffer. The cell suspension was fixed 1:1 ratio (staining buffer:fixative) and analysed within 48 h in ARIA3 DIVA software version 6.1. Further, expression of MHC-II, and CD-36, was also determined in the microglial cells via qPCR. For this RNA extraction was performed using RNA extraction kit from Qiagen according to the manufacturer's instruction. cDNA synthesis was performed using cDNA synthesis kit from Qiagen. […] Following amplification, fold changes in gene expression versus β-actin (reference) analysis was determined using the 2^ΔΔCT(Livak) method. To determine the immunomodulatory effect of A-O complex on activated macrophages, macrophages were activated with Concanavalin-A (Con-A), for 30 minutes and the changes in mRNA levels of Cd36, Lrp1, Cd11b, Cd74 and Apoe were analyzed by qPCR.

T1 sequence (P05067 672-713): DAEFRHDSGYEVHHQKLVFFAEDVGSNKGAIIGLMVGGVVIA

For “A-O complex: peptide complex of 100 μM Abeta1-42 (SEQ ID NO: 1) and 3 ng Glu-OC (SEQ ID NO: 2), incubated at 37° C. for 4 hours”, the “intracellular LDH” value (RAW264.7 macrophages) was “did not show any rise in intracellular LDH”, the iNOS protein expression ([1]; macrophage cell lysates, Western blot) was “reduces the iNOS expression” and the “nitrite level in cell culture supernatants” value ([1]; macrophage cultures, Griess assay) was “reduction in the ConA induced nitrite levels”. For the same substance, the ThT fluorescence emission (Abeta42) was “high enhancement of fluorescence emission of ThT”, the “mRNA transcripts of IGF-1” value [2] was “significantly higher” and the “mRNA transcripts of osteocalcin” value [2] was “significantly higher”. For the same substance, the “mRNA level of Cd11b” value [3] was “significantly reversed”, the “mRNA level of Cd36” value [3] was “significantly induced” and the “mRNA level of Cd74” value [3] was “significantly reversed”.

— US11447534B2, “Peptide complex with immunodulatory and anti-inflammatory function” (NATIONAL INSTITUTE OF IMMUNOLOGY, priority 2018, dated 2022)
